# Measurements from patent US10272095B2 (GlaxoSmithKline Intellectual Property Development Limited, priority 2015, dated 2019).
# pEC50: −log10 of the molar value. Structures can show the parent of a compound that is named as a salt.
# Test system: NQO1 specific enzyme activity in BEAS-2B cells
# Experiment: BEAS-2B NQO1 MTT assay
# Type: cell-based
# Conditions: Homo sapiens, BEAS-2B, 48 h, NQO1 specific enzyme activity induction in BEAS-2B cells, 48 hours; read-out: EC50
# Text: NAD(P)H:quinone oxidoreductase 1 (NQO1), also called DT diaphorase, is a homodimeric FAD-containing enzyme that catalyzes obligatory NAD(P)H-dependent two-electron reductions of quinones and protects cells against the toxic and neoplastic effects of free radicals and reactive oxygen species arising from one-electron reductions. The transcription of NQO1 is finely regulated by NRF2, and thus NQO1 activity is a good marker for NRF2 activation. On day one, frozen BEAS-2B cells (ATCC) are thawed in a water bath, counted, and re-suspended at a concentration of 250,000 cells/mL. Fifty microliters of cells are plated in 384 well black clear-bottomed plates. Plates are incubated at 37° C., 5% CO2 overnight. On day two, plates are centrifuged and 50 nL of compound or controls are added to the cells. Plates are then incubated at 37° C., 5% CO2 for 48 hours. On day four, medium is aspirated from the plate and crude cell lysates are made by adding 13 uL of 1× Cell Signaling Technologies lysis buffer with 1 Complete, Mini, EDTA-free Protease Inhibitor Tablet (Roche) for each 10 mL of lysis buffer. After lysis plates are incubated for 20 minutes at room temperature. Two microliters of lysate are removed for use in Cell Titer Glo assay (Promega) and MTT cocktail is prepared (Prochaska et. al. 1998) for measurement of NQO1 activity. Fifty microliters of MTT cocktail is added to each well, plate is centrifuged, and analyzed on an Envision plate reader (Perkin Elmer) using Absorbance 570 nm label for 30 minutes. Product formation is measured kinetically and the pEC50 of NQO1 specific activity induction is calculated by plotting the change in absorbance (Delta OD/min) versus the log of compound concentration followed by 3-parameter fitting.
# EC50s<1 nM (+++++), EC50s 10 nM-1 nM (++++), EC50s 10-100 nM (+++), EC50s 100 nM-1 uM (++), EC50s 1 uM-10 uM (+), EC50s>10 uM (−), or were not determined (ND).
row,Compound,pEC50
1,"Cc1c(C(c2ccc3c(c2)C(N2Cc4ccccc4OC(C)(C)C2)CC3)C(C)(C)C(=O)O)ccc2c1nnn2C (stereo not drawn) [Example 27, 3-(1,4-Dimethyl-1H-benzo[d][1,2,3]triazol-5-yl)-3-(3-(2,2-dimethyl-2,3-dihydrobenzo[f][1,4]oxazepin-4(5H)-yl)-2,3-dihydro-1H-inden-5-yl)-2,2-dimethylpropanoic Acid, 2 Formic Acid Salt]",> 9.00
2,"Cc1c(C(CC(=O)O)c2ccc3c(c2)C(N2Cc4cc(C#N)ccc4OC(C)(C)C2)CC3)ccc2c1nnn2C (stereo not drawn) [Example 28, 3-(3-(7-Cyano-2,2-dimethyl-2,3-dihydrobenzo[f][1,4]oxazepin-4(5H)-yl)-2,3-dihydro-1H-inden-5-yl)-3-(1,4-dimethyl-1H-benzo[d][1,2,3]triazol-5-yl)propanoic Acid, Formic Acid Salt]",> 9.00
3,"COc1cc(C(CC(=O)O)c2ccc3c(c2)C(N2Cc4ccccc4OC(C)(C)C2)CC3)c(C)c2nnn(C)c12 (stereo not drawn) [Example 29, 3-(3-(2,2-Dimethyl-2,3-dihydrobenzo[f][1,4]oxazepin-4(5H)-yl)-2,3-dihydro-1H-inden-5-yl)-3-(7-methoxy-1,4-dimethyl-1H-benzo[d][1,2,3]triazol-5-yl)propanoic Acid, Formic Acid Salt]",> 9.00
4,"CC[C@@H]1CN(C2CCc3ccc(C(c4ccc5c(nnn5C)c4C)C(C)(C)C(=O)O)cc32)Cc2ccccc2O1 (stereo partly drawn) [Example 30, 3-(1,4-Dimethyl-1H-benzo[d][1,2,3]triazol-5-yl)-3-(3-((R)-2-ethyl-2,3-dihydrobenzo[f][1,4]oxazepin-4(5H)-yl)-2,3-dihydro-1H-inden-5-yl)-2,2-dimethylpropanoic Acid, Formic Acid Salt]",8.00 to 9.00
5,"Cc1ccc2c(c1)CN(C1CCc3ccc(C(c4ccc5c(nnn5C)c4C)C(C)(C)C(=O)O)cc31)C[C@@H](C)O2 (stereo partly drawn) [Example 31, 3-(1,4-Dimethyl-1H-benzo[d][1,2,3]triazol-5-yl)-3-(3-((R)-2,7-dimethyl-2,3-dihydrobenzo[f][1,4]oxazepin-4(5H)-yl)-2,3-dihydro-1H-inden-5-yl)-2,2-dimethylpropanoic Acid, Formic Acid Salt]",8.00 to 9.00
6,"Cc1c(C(c2ccc3c(c2)C(N2Cc4ccccc4O[C@H](C)C2)CC3)C(C)(C)C(=O)O)ccc2c1nnn2C (stereo partly drawn) [Example 32, 3-(1,4-Dimethyl-1H-benzo[d][1,2,3]triazol-5-yl)-2,2-dimethyl-3-(3-((R)-2-methyl-2,3-dihydrobenzo[f][1,4]oxazepin-4(5H)-yl)-2,3-dihydro-1H-inden-5-yl)propanoic Acid, Formic Acid Salt]",8.00 to 9.00
7,"Cc1c(C(c2ccc3c(c2)C(N2Cc4cnccc4OC(C)(C)C2)CC3)C(C)(C)C(=O)O)ccc2c1nnn2C (stereo not drawn) [Example 33, 3-(1,4-Dimethyl-1H-benzo[d][1,2,3]triazol-5-yl)-3-(3-(2,2-dimethyl-2,3-dihydropyrido[3,4-f][1,4]oxazepin-4(5H)-yl)-2,3-dihydro-1H-inden-5-yl)-2,2-dimethylpropanoic Acid, Trifluoroacetic Acid Salt]",8.00 to 9.00
8,"Cc1c(C(c2ccc3c(c2)C(N2Cc4cccnc4OC(C)(C)C2)CC3)C(C)(C)C(=O)O)ccc2c1nnn2C (stereo not drawn) [Example 34, 3-(1,4-Dimethyl-1H-benzo[d][1,2,3]triazol-5-yl)-3-(3-(2,2-dimethyl-2,3-dihydropyrido[3,2-f][1,4]oxazepin-4(5H)-yl)-2,3-dihydro-1H-inden-5-yl)-2,2-dimethylpropanoic acid, Formic Acid Salt]",8.00 to 9.00
9,"Cc1c(C(CC(=O)O)c2ccc3c(c2)C(N2Cc4ccc(C#N)cc4OC(C)(C)C2)CC3)ccc2c1nnn2C (stereo not drawn) [Example 35, 3-(3-(8-Cyano-2,2-dimethyl-2,3-dihydrobenzo[f][1,4]oxazepin-4(5H)-yl)-2,3-dihydro-1H-inden-5-yl)-3-(1,4-dimethyl-1H-benzo[d][1,2,3]triazol-5-yl)propanoic Acid, Formic Acid Salt]",8.00 to 9.00
10,"COc1cc(C(CC(=O)O)c2ccc3c(c2)C(N2Cc4cnccc4OC(C)(C)C2)CC3)c(C)c2nnn(C)c12 (stereo not drawn) [Example 36, 3-(3-(2,2-Dimethyl-2,3-dihydropyrido[3,4-f][1,4]oxazepin-4(5H)-yl)-2,3-dihydro-1H-inden-5-yl)-3-(7-methoxy-1,4-dimethyl-1H-benzo[d][1,2,3]triazol-5-yl)propanoic Acid, Formic Acid Salt]",8.00 to 9.00
11,"CC[C@@H]1CN(C2CCc3ccc(C(c4ccc5c(nnn5C)c4C)C(C)(C)C(=O)O)cc32)Cc2cnccc2O1 (stereo partly drawn) [Example 37, 3-(1,4-Dimethyl-1H-benzo[d][1,2,3]triazol-5-yl)-3-(3-((R)-2-ethyl-2,3-dihydropyrido[3,4-f][1,4]oxazepin-4(5H)-yl)-2,3-dihydro-1H-inden-5-yl)-2,2-dimethylpropanoic Acid, Formic Acid Salt]",8.00 to 9.00
12,"Cc1c(C(c2ccc3c(c2)C(N2CCOc4ccccc4C2)CC3)C(C)(C)C(=O)O)ccc2c1nnn2C (stereo not drawn) [Example 38, 3-(3-(2,3-Dihydrobenzo[f][1,4]oxazepin-4(5H)-yl)-2,3-dihydro-1H-inden-5-yl)-3-(1,4-dimethyl-1H-benzo[d][1,2,3]triazol-5-yl)-2,2-dimethylpropanoic Acid, Formic Acid Salt]",8.00 to 9.00
13,"COc1cc(C(CC(=O)O)c2ccc3c(c2)C(N2Cc4cc(C)ccc4O[C@H](C)C2)CC3)c(C)c2nnn(C)c12 (stereo partly drawn) [Example 39, 3-(3-((R)-2,7-Dimethyl-2,3-dihydrobenzo[f][1,4]oxazepin-4(5H)-yl)-2,3-dihydro-1H-inden-5-yl)-3-(7-methoxy-1,4-dimethyl-1H-benzo[d][1,2,3]triazol-5-yl)propanoic Acid, Formic Acid Salt]",8.00 to 9.00
14,"Cc1c(C(CC(=O)O)c2ccc3c(c2)C(N2Cc4ccccc4OC(C)(C)C2)CC3)ccc2c1nnn2C (stereo not drawn) [Example 40, 3-(1,4-Dimethyl-1H-benzo[d][1,2,3]triazol-5-yl)-3-(3-(2,2-dimethyl-2,3-dihydrobenzo[f][1,4]oxazepin-4(5H)-yl)-2,3-dihydro-1H-inden-5-yl)propanoic Acid, Formic Acid Salt]",8.00 to 9.00
15,"Cc1c(C(c2ccc3c(c2)C(N2Cc4cccnc4O[C@H](C)C2)CC3)C(C)(C)C(=O)O)ccc2c1nnn2C (stereo partly drawn) [Example 42, 3-(1,4-Dimethyl-1H-benzo[d][1,2,3]triazol-5-yl)-2,2-dimethyl-3-(3-((R)-2-methyl-2,3-dihydropyrido[3,2-f][1,4]oxazepin-4(5H)-yl)-2,3-dihydro-1H-inden-5-yl)propanoic Acid, Formic Acid Salt]",8.00 to 9.00
16,"COc1cc(C(CC(=O)O)c2ccc3c(c2)C(N2Cc4ccccc4OC(C)(C)C2)CC3)cc2nnn(C)c12 (stereo not drawn) [Example 43, 3-(3-(2,2-Dimethyl-2,3-dihydrobenzo[f][1,4]oxazepin-4(5H)-yl)-2,3-dihydro-1H-inden-5-yl)-3-(7-methoxy-1-methyl-1H-benzo[d][1,2,3]triazol-5-yl)propanoic Acid, Formate Salt]",8.00 to 9.00
17,"COc1cc(C(CC(=O)O)c2ccc3c(c2)C(N2Cc4cccnc4OC(C)(C)C2)CC3)c(C)c2nnn(C)c12 (stereo not drawn) [Example 44, 3-(3-(2,2-Dimethyl-2,3-dihydropyrido[3,2-f][1,4]oxazepin-4(5H)-yl)-2,3-dihydro-1H-inden-5-yl)-3-(7-methoxy-1,4-dimethyl-1H-benzo[d][1,2,3]triazol-5-yl)propanoic Acid, Formic Acid Salt]",8.00 to 9.00
18,"CC[C@@H]1CN(C2CCc3ccc(C(CC(=O)O)c4cc(OC)c5c(nnn5C)c4C)cc32)Cc2ccccc2O1 (stereo partly drawn) [Example 45, 3-(3-((R)-2-Ethyl-2,3-dihydrobenzo[f][1,4]oxazepin-4(5H)-yl)-2,3-dihydro-1H-inden-5-yl)-3-(7-methoxy-1,4-dimethyl-1H-benzo[d][1,2,3]triazol-5-yl)propanoic Acid, Formic Acid Salt]",7.00 to 8.00
19,"COc1cc(C(CC(=O)O)c2ccc3c(c2)C(N2Cc4cnccc4OC(C)(C)C2)CC3)cc2nnn(C)c12 (stereo not drawn) [Example 46, 3-(3-(2,2-Dimethyl-2,3-dihydropyrido[3,4-f][1,4]oxazepin-4(5H)-yl)-2,3-dihydro-1H-inden-5-yl)-3-(7-methoxy-1-methyl-1H-benzo[d][1,2,3]triazol-5-yl)propanoic Acid, Formic Acid Salt]",7.00 to 8.00
20,"Cc1ccc2c(c1)CN(C1CCc3ccc(C(CC(=O)O)c4ccc5c(nnn5C)c4C)cc31)C[C@@H](C)O2 (stereo partly drawn) [Example 47, 3-(1,4-Dimethyl-1H-benzo[d][1,2,3]triazol-5-yl)-3-(3-((R)-2,7-dimethyl-2,3-dihydrobenzo[f][1,4]oxazepin-4(5H)-yl)-2,3-dihydro-1H-inden-5-yl)propanoic Acid, Formic Acid Salt]",7.00 to 8.00

# Same assay, conditions: Homo sapiens, BEAS-2B, NQO1 specific enzyme activity in BEAS-2B cells; in some determinations; read-out: EC50 values in some determinations
row,Compound,pEC50
1,"Cc1c(C(c2ccc3c(c2)C(N2Cc4ccccc4OC(C)(C)C2)CC3)C(C)(C)C(=O)O)ccc2c1nnn2C (stereo not drawn) [Example 27, 3-(1,4-Dimethyl-1H-benzo[d][1,2,3]triazol-5-yl)-3-(3-(2,2-dimethyl-2,3-dihydrobenzo[f][1,4]oxazepin-4(5H)-yl)-2,3-dihydro-1H-inden-5-yl)-2,2-dimethylpropanoic Acid, 2 Formic Acid Salt]",> 9.77
